# Experimental data reported in patent US7102000B2, “Heterocyclic amide derivatives for the treatment of diabetes and other diseases” (Incyte San Diego Inc., priority 2002, dated 2006).
# Counter-ions that a name gives are not always drawn.
# Legend:
# [1] = Oral bioavailability, single dose pharmacokinetic study in rats (plasma concentration by HPLC); format: in vivo, Sprague Dawley rats; conditions: rat; for concentration of compound in plasma: single oral dose 10 mg/kg in 10% HPβCD, 0.5–26 hours, FIG. 7
# Source text: Oral bioavailability is an important pharmaceutical characteristic for a compound to advance through drug development. A basic assessment of the oral bioavailability of a compound can be done in a single dose pharmacokinetic study in wild type rats.
# Six to eight week-old male Sprague Dawley rats (Harlan) were housed in a fixed 12–12- hr artificial light-dark cycle, and maintained on a standard rodent diet provided ad libitum. Animals were allowed two days to acclimate in this experimental environment prior to the initiation of the study. Compounds 24 and 25 were dissolved in a 10% hydroxypropyl beta cyclodextrin solution and administered by oral gavage in a final dose of 10 mg/kg in a volume of 5 ml/kg. Treatment groups were divided as follows:
# Treatment groups(n=3/group): • 1) Compound 24 (10 mg/kg) • 2) Compound 25 (10 mg/kg)
# Each animal received a single treatment, after which, the animal was bled from the tail vein at the following time points: 0.5, 1, 2, 4, 6, 9, 12, and 26 hours after treatment. To measure the concentration of each compound in plasma, blood samples were collected in heparin-coated tubes, and the plasma was isolated and analyzed by HPLC.
# [2] = system: Mouse pre-adipocyte 3T3-L1 cells; assay: Differentiation of 3T3-L1 pre-adipocytes in an in vitro assay (lipid content); format: cell-based; conditions: 0.1 μM, 7 days; taken as reference
# Procedure: The compounds of the invention have been screened in an in-vitro adipocyte differentiation assay, as described in Example 26. Mouse pre-adipocyte 3T3-L1 cells were treated with compounds at concentrations less than or equal to 10^−6 M for 7 days.
# The compounds can be considered active for adipocyte differentiation if the lipid accumulation induced is at least about 20%, or at least about 40% of the lipid accumulation induced by 5-[3-(3,5,5,8,8-Pentamethyl-5,6,7,8-tetrahydro-naphthalen-2-yl)-4-trifluoromethoxy-benzylidene]-thiazolidine-2,4-dione when it is applied to control cultures of mouse preadipocyte 3T3-L1 cells at a concentration of about 1×10^−7 M.
# The following protocol was used to determine adipocyte differentiation activity of the compounds of the invention: Mouse pre-adipocyte 3T3-L1 cells obtained from ATCC (American Tissue Culture Collection, MD) were initially grown in DME Dulbecco's modified Eagle's medium containing 4500 mg/L glucose; 4 mM L-glutamine; 10 U/ml Pen-G; 10 mcg/ml Streptomycin and 10% Bovine Calf Serum (CS) at 37° C. and 10% CO2. Cells were plated in 96 well plates at a density of approximately 3,000 cells/well and grown to confluence (when cells use 100% of the available space on the well) in the same medium. […] The cellular lysates were analyzed for their lipid content using the Triglyceride-GPO Trinder reagent from Sigma.
# [3] = system: Mouse pre-adipocyte 3T3-L1 cells; conditions: stated as previously shown; cited from earlier work
# [4] = system: carcinogen induced mammary tumors; assay: Progression of carcinogen induced mammary tumors in Sprague Dawley rats; format: in vivo, rat; conditions: oral once daily for four weeks
# Procedure: (§1) Procedure: Five week-old female Sprague Dawley rats (Harlan) were housed in a fixed 12–12-hr artificial light-dark cycle, and maintained on a standard rodent diet provided ad libitum. Animals were allowed two days to acclimate in this experimental environment prior to the initiation of the study.
# To induce mammary tumors, the female […] were injected intraperitoneally with the carcinogen n-nitroso-n-methylurea, in a single dose of 50 mg/kg in acidified normal saline (pH 4 w/acetic acid) at a final volume of 10 mg/ml (5 ml/kg). After eight weeks, mammary tumors are detected, and the tumor bearing females are sorted into treatment groups. Once sorted, the animals were housed four per cage and provided rodent diet ad libitum. All animals are treated with compound 1 or a vehicle for four weeks, during which time changes in tumor size are monitored. Tumors were classified as regressing, static or progressing.
# Treatment groups (n=8/group): • 1) Control (sesame oil) • 2) Compound 6 (20 mg/kg) • 3) Compound 11 (100 mg/kg) • 4) Compound 13 (50 mg/kg) • 5) Compound 24 (50 mg/kg) • 6) Compound 25 (20 mg/kg) • 7) Compound 25 (100 mg/kg)
# All of the compounds tested were suspended in sesame oil, and administered to animals in a volume of 3 ml/kg/dose, except compound 25 which was dissolved in a 10% hydroxy propyl beta cyclodextrin solution, and administered to animals in a volume of 10 ml/kg/dose. All treatments were administered by oral gavage once daily for four weeks.
# To monitor the effect of the tested compound, animals were examined for mammary tumors once every week. Tumors were classified into one of three categories, progressing, static or regressing.
# db/db mutant mice = assay: Oral treatment of type 2 diabetes in db/db mutant mice (serum glucose, triglyceride); format: in vivo, mouse
# Procedure: Experimental Procedure: Seven week-old female db/db mutant mice (C57BL/KsJ-db +/+m; Jackson Labs, Bar Harbour, Me.) were housed in a fixed 12—12-hr artificial light-dark cycle, and maintained on a standard high fat diet (containing at least 11% crude fat) provided ad libitum (Teklad S-2335). Animals were allowed two days to acclimate in this experimental environment prior to the initiation of the study. Prior to initiation of treatment, the animals were bled from the tail vein (100–200 μL of whole blood) and serum levels of glucose and triglycerides were measured in duplicate (Trinder kits; Sigma, St. Louis, Mo.). Based on these initial measures, animals were sorted into treatment groups with approximately the same average serum glucose levels. Once sorted, the animals were housed five per cage and provided high fat rodent diet ad libitum.
# Treatment Groups (n=5/group): • 1) db/db control (CMC) • 2) Compound 25 (0.1 mg/kg, in CMC) • 3) Compound 25 (0.3 mg/kg, in CMC) • 4) Compound 25 (1 mg/kg, in CMC)
# Compound 25 was suspended in a solution of carboxymethyl cellulose (CMC; 1% carboxy methyl cellulose in H2O, with 10% polyethelene glycol 400), and administered to animals in a volume of 5 ml/kg/dose. The drug is administered by oral gavage once daily at the beginning of the artificial light cycle.
# To monitor the effect of the tested compounds, animals were bled following a three-hour fast at the end of the dark cycle on days 0, 7, 14 of the treatment period. Fasting serum glucose and triglyceride levels were measured in duplicate. The blood is kept at room temperature to allow coagulation, after which the serum is separated and. assayed for glucose and triglyceride levels.
# KKA^y mice = assay: Oral treatment of type 2 diabetes in KKA^y mice (serum glucose, triglyceride, cholesterol); format: in vivo, mouse; conditions: KKA^y mice, 1, 3, 10 mg/kg oral in 10% HPβCD, following 4 weeks of treatment, FIG. 2e
# Source text: The procedure for this in-vivo assay for anti-diabetes activity was described in detail by Iwatsuka, et al. (1970 General Survey of Diabetic Features of Yellow KK Mice. Endocrinol. Japon. 17: 23–35, incorporated herein in its entirety by reference).
# as §1, with “Experimental Procedures: Six to eight” for “Procedure: Five”, “male KKA^y mice (obtained from Jackson Labs of Bar Harbord, Me.)” for “female Sprague Dawley rats (Harlan)”
# Prior to initiation of treatment with the compounds of the invention, the animals were bled from the tail vein (100–200 μL of whole blood) and serum levels of glucose and triglycerides were measured in duplicate (Trinder kits; Sigma, St. Louis, Mo.). Based on these initial measures, animals were sorted into groups with approximately the same average serum glucose levels. Once sorted, the animals were housed one per cage and provided rodent diet ad libitum. Unless otherwise indicated, compounds were suspended in sesame oil, and administered by oral gavage once daily to animals in a volume of 3 ml/kg/dose.
# Treatment Group A (n=5/group): (See Results in FIG. 2a) • 1) KKA^y vehicle control (sesame oil) • 2) Compound 1 (3 mg/kg) • 3) Compound 1 (10 mg/kg) • 4) Compound 2 (3 mg/kg) • 5) Compound 2 (10 mg/kg)
# Treatment Group B (n=6/group): (See Results in FIG. 2b) • 1) KKA^y vehicle control (sesame oil) • 2) Compound 11 (15 mg/kg)
# Treatment Group C (n=6/group): (See Results in FIG. 2c) • 1) KKA^y vehicle control (sesame oil) • 2) Compound 13 (15 mg/kg)
# Treatment Group D (n=6/group): (See Results in FIG. 2d) • 1) KKA^y vehicle control (CMC) • 2) Compound 25 (3 mg/kg, CMC) Compound 25 was suspended in a solution of carboxymethyl cellulose (CMC; 1% carboxy methyl cellulose in H2O, with 10% polyethelene glycol 400), and administered to animals in a volume of 5 ml/kg/dose.
# Treatment Group E (n=5/group): (See Results in FIG. 2e) • 1) KKA^y vehicle control (10% HPβCD) • 2) Compound 25 (1 mg/kg) • 3) Compound 25 (3 mg/kg) • 4) Compound 25 (10 mg/kg) Compound 25 was dissolved in a 10% hydroxy propyl beta cyclodextrin solution, and administered to animals in a volume of 10 ml/kg/dose.
# Serum glucose, triglyceride and/or cholesterol levels were measured in duplicate. The blood is kept at room temperature to allow coagulation, after which the serum is separated and assayed for glucose, triglyceride and/or cholesterol levels. As shown in FIGS. 2a–2d all of the compounds tested reduced serum glucose and triglyceride levels, some with doses as low as 3 mg/kg when administered once a day.
# [5] = oral once daily in CMC, compared to control animals, FIG. 3
smiles,measurement,setting,value
"Cc1cc2c(cc1-c1cc(/C=C3\SC(=O)NC3=O)ccc1OC(F)(F)F)C(C)(C)CCC2(C)C [Compound 24, 5-[3-(3,5,5,8,8-Pentamethyl-5,6,7,8-tetrahydro-naphthalen-2-yl)-4-trifluoromethoxy-benzylidene]-thiazolidine-2,4-dione]",concentration of compound in plasma,[1],only detected as being present at near the limit of detection
same,"differentiation of 3T3-L1 cells (lipid content), standard for differentiation activity",[2],100%
same,inducer of adipocyte differentiation,[3],potent inducer of adipocyte differentiation
"CCN1C(=O)CC(C)(C)c2cc(C)c(-c3cc(/C=C4\SC(=O)NC4=O)ccc3OC(F)(F)F)cc21 [Compound 25, 5-[3-(1-Ethyl-4,4,6-trimethyl-2-oxo-1,2,3,4-tetrahydro-quinolin-7-yl)-4-trifluoromethoxy-benzylidene]-thiazolidine-2,4-dione, TRIS Salt]",concentration of compound in plasma,[1],significantly higher concentration
same,oral bioavailability,"[1]; single oral dose 10 mg/kg, Compound 25 over Compound 24",improved bioavailability
same,dose causing regression of tumors (as low as),[4],≥ 20 mg/kg
same,regression of tumors,[4]; FIG. 6,caused the regression of tumors
same,growth / progression of mammary (breast cancer) tumors,"[4]; vs vehicle treated controls, FIG. 6",slow or cause regression
same,dose ameliorating the symptoms of diabetes (as low as),db/db mutant mice; once daily oral,≥ 0.3 mg/kg
same,fasting serum glucose,db/db mutant mice; [5],reduced
same,fasting serum triglyceride,db/db mutant mice; [5],reduced
same,serum glucose level,KKA^y mice,unexpectedly strong and simultaneous reduction
same,serum total cholesterol level,KKA^y mice,unexpectedly strong and simultaneous reduction
same,serum triglyceride level,KKA^y mice,unexpectedly strong and simultaneous reduction
